PMC7883042 (Peptide Science (Hoboken, N.j.), 2021)

Target: SARS‐CoV‐2 RBD/ACE2 PPI in A549 cells overexpressing ACE2 (Severe acute respiratory syndrome coronavirus 2, UniProt P0DTC2)

Ac-IEEQAKTFLDKFNHER8EDLFYQS5-NH2 (sidechain bridge or staple) [Peptide 8]
entry of His‐tagged SARS‐CoV RBD into cells (immunofluorescence): show entry
